Here are results for two compounds from PMC6129362, “MT1-MMP as a PET Imaging Biomarker for Pancreas Cancer Management” (Contrast Media & Molecular Imaging, 2018).

The nature of data set [1]: PET/CT imaging in CAPAN-2-tumour-bearing mice. The class given is in vivo. As to conditions: female, athymic nude-Foxn1nu (nu/nu), mouse, iv, total radioactivity, CAPAN-2 xenograft mice, i.v., PET 90 min after injection, mean ± SD (n=33 for -1, n=17 for -2), read-out: Tumour uptake quantified by PET imaging. The procedure: For the cell line-derived model, 1 × 10^6 CAPAN-2 cells were injected subcutaneously into the flanks of female athymic nude-Foxn1nu (nu/nu) mice (Harlan Laboratories). Tumours were allowed to develop until palpable prior to PET imaging. Mice were sacrificed when the tumour mass reached a maximum size of 1500 mm^3 or tumour ulceration was observed, or mice were symptomatic from their tumours which included signs of lethargy, poor grooming, weight loss, and hunching.
PET imaging was performed with a small-animal Argus PET-CT scanner (SEDECAL, Madrid, Spain). PET studies (energy window 250–700 KeV and 30 min static acquisition) and CT studies (voltage 45 kV, current 150 μA, 8 shots, 360 projections, and standard resolution) were performed either at 90 min or at various time points after injection of ^68Ga-DOTA-AF7p or ^89Zr-DFO-LEM2/15, respectively, in mice anesthetized by inhalation of 2–2.5% isoflurane. PET image reconstruction was accomplished using a 2D-OSEM (ordered subset expectation maximization) algorithm (16 subsets and two iterations), with random and scatter correction. […] Tumour-to-blood and tumour-to-background ratios were calculated from %ID/g values in ROIs for the whole tumour, heart (a measure of the blood pool), and brain (for background measurements). Images were analysed with the image analysis software ITK-SNAP [26] […]

A short description of data set [2]: PET/CT imaging in heterotopic (subcutaneous) patient-derived xenograft mice. The class given is in vivo, mouse. Particulars: female, athymic nude-Foxn1nu (nu/nu), mouse, total radioactivity, heterotopic PDX mice. The source says: (§1) PDX models used in this work were established as described by Rubio-Viqueira et al. and Hidalgo et al. using four- to six-week-old female athymic nude-Foxn1nu (nu/nu) mice, purchased from Envigo (Barcelona, Spain). Animals were maintained at the Spanish National Cancer Research Centre (CNIO) Animal Facility (awarded with the AAALAC accreditation). Orthotopic tumours were monitored by ultrasonography, and those implanted into the flanks were allowed to grow to approximately 40 to 200 mm^3 prior to perform PET imaging studies.
(§2) PET imaging was performed with a small-animal Argus PET-CT scanner (SEDECAL, Madrid, Spain). PET studies (energy window 250–700 KeV and 30 min static acquisition) and CT studies (voltage 45 kV, current 150 μA, 8 shots, 360 projections, and standard resolution) were performed either at 90 min or at various time points after injection of ^68Ga-DOTA-AF7p or ^89Zr-DFO-LEM2/15, respectively, in mice anesthetized by inhalation of 2–2.5% isoflurane. PET image reconstruction was accomplished using a 2D-OSEM (ordered subset expectation maximization) algorithm (16 subsets and two iterations), with random and scatter correction. A calibration factor predetermined by scanning a cylindrical phantom containing a known activity of ^68Ga or ^89Zr was used to convert counts per pixel/sec to kBq/cm^3. Manually drawn regions of interest (ROIs) selected from PET images using CT anatomical guidelines were used to determine the mean radiotracer accumulation in units of %ID/g tissue (decay corrected to the time of injection) by dividing the obtained average tracer concentration (kBq/cm^3) in the region by the total ID (injected dose, expressed in kBq). Tumour-to-blood and tumour-to-background ratios were calculated from %ID/g values in ROIs for the whole tumour, heart (a measure of the blood pool), and brain (for background measurements). Images were analysed with the image analysis software ITK-SNAP [26] (http://www.itksnap.org).

Data set [3] deals with subcutaneous PDAC patient-derived xenograft. Described as above. The data set is classed as in vivo, mouse. Particulars: heterotopic PDX mice.
Description: as §1, §2

Molecules are shown by their SMILES. Where a SMILES comes first, the peptide text is derived from it. The star is where a group is joined. DOTA = O=C(O)CN1CCN(CC(=O)O)CCN(CC(=O)*)CCN(CC(=O)O)CC1

Regarding `CC(C)C[C@H](NC(=O)[C@H](Cc1ccccc1)NC(=O)[C@@H](NC(=O)[C@H](CCCCN)NC(=O)[C@@H](NC(=O)[C@H](CC(N)=O)NC(=O)[C@H](Cc1c[nH]cn1)NC(=O)[C@H](CC(C)C)NC(=O)[C@H](Cc1c[nH]cn1)NC(=O)[C@H](CCCCN)NC(=O)[C@H](Cc1c[nH]c2ccccc12)NC(=O)[C@H](Cc1c[nH]cn1)NC(=O)CN1CCN(CC(=O)O)CCN(CC(=O)O)CCN(CC(=O)O)CC1)[C@@H](C)O)[C@@H](C)O)C(=O)O` [^68Ga-DOTA-AF7p-1, metal not drawn] ({DOTA}-HWKHLHNTKTFL-OH), the tissue uptake at 1.5 h stood at 0.171 ± 0.095 %ID/g in data set [1]; 4.03 ± 1.73 %ID/g in data set [2] (kidneys, PET, n=17, read-out: Mean accumulation in kidneys); 0.8 ± 0.6 %ID/g in data set [2] (liver, PET, n=16, read-out: Mean accumulation in liver); 0.23 ± 0.085 %ID/g in data set [2] (tumour, PET 90 min after injection, start of the PET study, n=8, read-out: Tumour uptake quantified by PET imaging); 0.227 ± 0.142 %ID/g in data set [2] (tumour, PET 90 min after injection, study day 5, n=8, read-out: Tumour uptake quantified by PET imaging); 0.26 ± 0.047 %ID/g in data set [2] (tumour, PET 90 min after injection, study day 8, n=6, read-out: Tumour uptake quantified by PET imaging). Moreover, the tissue uptake at 1.5 h in data set [2] (tumour, PET 90 min after injection, study day 14, n=10, read-out: Tumour uptake quantified by PET imaging) stood at 0.185 ± 0.082 %ID/g. Besides, the “Route of excretion (signals in kidneys and bladder on PET)” value in data set [3] was “mainly excreted through the renal route”.
On to `CC(C)C[C@H](NC(=O)[C@H](Cc1ccccc1)NC(=O)[C@@H](NC(=O)[C@H](CCCCN)NC(=O)[C@@H](NC(=O)[C@H](CC(N)=O)NC(=O)[C@H](Cc1c[nH]cn1)NC(=O)[C@H](CC(C)C)NC(=O)[C@H](Cc1c[nH]cn1)NC(=O)[C@H](CCCCNC(=O)CN1CCN(CC(=O)O)CCN(CC(=O)O)CCN(CC(=O)O)CC1)NC(=O)[C@H](Cc1c[nH]c2ccccc12)NC(=O)[C@@H](N)Cc1c[nH]cn1)[C@@H](C)O)[C@@H](C)O)C(=O)O` [^68Ga-DOTA-AF7p-2, metal not drawn] (H-HWK(DOTA)HLHNTKTFL-OH), for which the tissue uptake at 1.5 h in data set [1] turned out to be 0.216 ± 0.095 %ID/g.
